biological target: T1, HCV NS5B RdRp genotype 1b (Hepatitis C virus genotype 1b, UniProt Q9WMX2); experiment: HCV NS5B RdRp enzyme assay; assay type: biochemical; conditions: IC50, HCV RdRp genotype 1b enzyme, C-terminal 18 aa truncated; average of single point IC50 values
T1 construct: The protein was expressed with an 18 amino acid C-terminal truncation to enhance the solubility; made in house; host or cells: E. coli BL21(DE3)
Description: HCV NS5B RdRp cloning, expression and purification. The cDNA encoding the NS5B protein of HCV, genotype 1b, was cloned into the pET21a expression vector. The protein was expressed with an 18 amino acid C-terminal truncation to enhance the solubility. The E. coli competent cell line BL21(DE3) was used for expression of the protein. Cultures were grown at 37° C. for ˜4 hours until the cultures reached an optical density of 2.0 at 600 nm. The cultures were cooled to 20° C. and induced with 1 mM IPTG. Fresh ampicillin was added to a final concentration of 50 ug/ml and the cells were grown overnight at 20° C.
Cell pellets (3L) were lysed for purification to yield 15-24 mgs of purified NS5B. The lysis buffer consisted of 20 mM Tris-HCl, pH 7.4, 500 mM NaCl, 0.5% triton X-100, 1 mM DTT, 1 mM EDTA, 20% glycerol, 0.5 mg/ml lysozyme, 10 mM MgCl2, 15 ug/ml deoxyribonuclease I, and Complete TM protease inhibitor tablets (Roche). After addition of the lysis buffer, frozen cell pellets were resuspended using a tissue homogenizer. To reduce the viscosity of the sample, aliquots of the lysate were sonicated on ice using a microtip attached to a Branson sonicator. The sonicated lysate was centrifuged at 100,000×g for 1 hr at 4° C. and filtered through a 0.2 μm filter unit (Corning).
The protein was purified using three sequential chromatography steps: Heparin sepharose CL-6B, polyU sepharose 4B, and Hitrap SP sepharose (Pharmacia). The chromatography buffers were identical to the lysis buffer but contained no lysozyme, deoxyribonuclease I, MgCl2 or protease inhibitor and the NaCl concentration of the buffer was adjusted according to the requirements for charging the protein onto the column. Each column was eluted with a NaCl gradient which varied in length from 5-50 column volumes depending on the column type. After the final chromatography step, the resulting purity of the enzyme is >90% based on SDS-PAGE analysis. The enzyme was aliquoted and stored at −80° C.
HCV NS5B RdRp enzyme assay. HCV RdRp genotype 1b assays were run in assay buffer composed of 20 mM Tris-HCl, pH 7.5, 2.5 mM KCl, 5 mM MgCl2, 1 mM DTT, 1.6 U RNAse inhibitor (Promega N2515), in 96 well plates (Falcon 3918). All compounds were serially diluted in DMSO and diluted further in assay buffer such that the final concentration of DMSO in the assay was 2%. Compounds were serially diluted (3-fold each time) for a 7 point inhibition analysis. HCV RdRp genotype 1b enzyme was used at a final concentration of 28 nM. A polyA template was used at 28 nM, and the oligo-dT12-18 primer was used at 840 nM final concentration. Preannealed primer and template were obtained commercially (Amersham 27-787802). ^3H-UTP was used at 0.125 μCi (1 μM total UTP). Reaction was initiated by the addition of enzyme. Reactions were incubated at 30° C. for 45 min, and stopped by adding 30 ul of 20% ice cold TCA. Plates were chilled for 30 minutes and harvested onto Unifilter-96, GF/B plates (Packard, 6005177) using a Packard FilterMate Cell Harvester. The harvest plates were prewashed 3 times, 200 ul/well, with 100 mM NaPPi. Harvested filters were washed 30 times, 200 ul/well, with distilled water followed by ethanol. Filter plates were dried, and 30 ul/well microscint-20 was added. Plates were read on a Packard Top Count NXT.
The IC50 values for compounds were determined using […] different [I], combined with 7 nM enzyme, 800 ng of the template-primer polyC/oligoG12 (1:5 molar ratio), and 0.7 uM of ^3H GTP containing 1 uCi. The observed fractional activity (fa=vi/vo) was used in the equation IC50=[I]/(1/fa-1) to determine a single point IC50 value. Typically, the single point IC50 values derived from [I] that produced fractional activities in the range of 0.1 to 0.8 relative to the uninhibited control were averaged to calculate the IC50 value for each compound.

T1 sequence (Q9WMX2 2420-2992): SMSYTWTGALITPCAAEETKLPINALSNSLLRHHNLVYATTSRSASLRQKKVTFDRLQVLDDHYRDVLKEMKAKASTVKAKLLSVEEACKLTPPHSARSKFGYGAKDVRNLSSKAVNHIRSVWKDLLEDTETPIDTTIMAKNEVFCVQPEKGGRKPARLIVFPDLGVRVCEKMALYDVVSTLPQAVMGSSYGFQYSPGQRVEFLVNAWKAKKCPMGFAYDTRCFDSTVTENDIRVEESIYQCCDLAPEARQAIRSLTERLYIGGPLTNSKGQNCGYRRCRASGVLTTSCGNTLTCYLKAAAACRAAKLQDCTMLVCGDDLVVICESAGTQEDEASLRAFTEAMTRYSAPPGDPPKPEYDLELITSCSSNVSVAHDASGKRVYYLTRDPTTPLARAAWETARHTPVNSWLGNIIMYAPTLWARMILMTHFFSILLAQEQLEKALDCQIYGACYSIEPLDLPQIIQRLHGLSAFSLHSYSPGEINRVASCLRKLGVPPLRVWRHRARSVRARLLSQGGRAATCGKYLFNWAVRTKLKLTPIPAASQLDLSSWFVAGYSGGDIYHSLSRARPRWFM

| SMILES | IC50 |
| --- | --- |
| CC(C)(C)OC(=O)C(Cc1ccc(O)cc1)NC(=O)c1ccc(-c2ccc(F)c(Cl)c2)c(COc2ccc(-c3nc4cc(-c5nnn[nH]5)ccc4n3C3CCCCC3)cc2)c1 (centres unmarked) [Example 83] | 560 nM |
| CC(C)(C)OC(=O)CNC(=O)c1ccc(-c2ccc(F)c(Cl)c2)c(COc2ccc(-c3nc4cc(-c5nnn[nH]5)ccc4n3C3CCCCC3)cc2)c1 [Example 84] | 1200 nM |
| CC(C)(C)OC(=O)C(Cc1cc2ccccc2[nH]1)NC(=O)c1ccc(-c2ccc(F)c(Cl)c2)c(COc2ccc(-c3nc4cc(-c5nnn[nH]5)ccc4n3C3CCCCC3)cc2)c1 (centres unmarked) [Example 85] | 2300 nM |
| O=C(O)CNC(=O)c1ccc(-c2ccc(F)c(Cl)c2)c(COc2ccc(-c3nc4cc(-c5nnn[nH]5)ccc4n3C3CCCCC3)cc2)c1 [Example 86] | 320 nM |
| COc1ccc(-c2ccc(C(=O)N3CCOCC3)cc2COc2ccc(-c3nc4cc(-c5nnn[nH]5)ccc4n3C3CCCCC3)cc2)cc1OC [Example 88] | 470 nM |
| COc1ccc(-c2ccc(C(=O)N3CCCC3)cc2COc2ccc(-c3nc4cc(-c5nnn[nH]5)ccc4n3C3CCCCC3)cc2)cc1OC [Example 89] | 460 nM |
| COc1ccc(-c2ccc(C(=O)NCCCO)cc2COc2ccc(-c3nc4cc(-c5nnn[nH]5)ccc4n3C3CCCCC3)cc2)cc1OC [Example 90] | 630 nM |
| CNC(=O)c1ccc(-c2ccc(OC)c(OC)c2)c(COc2ccc(-c3nc4cc(-c5nnn[nH]5)ccc4n3C3CCCCC3)cc2)c1 [Example 91] | 260 nM |
| COc1ccc(-c2ccc(C(=O)N(CCO)CCO)cc2COc2ccc(-c3nc4cc(-c5nnn[nH]5)ccc4n3C3CCCCC3)cc2)cc1OC [Example 93] | 690 nM |
| COc1ccc(-c2ccc(C(=O)NC(C)C(=O)OC(C)(C)C)cc2COc2ccc(-c3nc4cc(-c5nnn[nH]5)ccc4n3C3CCCCC3)cc2)cc1OC (centres unmarked) [Example 94] | 2100 nM |
| COc1ccc(-c2ccc(C(=O)NC(Cc3ccc(O)cc3)C(=O)OC(C)(C)C)cc2COc2ccc(-c3nc4cc(-c5nnn[nH]5)ccc4n3C3CCCCC3)cc2)cc1OC (centres unmarked) [Example 95] | 1400 nM |
| COc1ccc(-c2ccc(C(=O)NCC(=O)OC(C)(C)C)cc2COc2ccc(-c3nc4cc(-c5nnn[nH]5)ccc4n3C3CCCCC3)cc2)cc1OC [Example 96] | 1600 nM |
| COc1ccc(-c2ccc(C(=O)NCC(=O)O)cc2COc2ccc(-c3nc4cc(-c5nnn[nH]5)ccc4n3C3CCCCC3)cc2)cc1OC [Example 98] | 210 nM |
| CNC(=O)c1ccc(-c2ccc(Cl)cc2)c(COc2ccc(-c3nc4cc(-c5nnn[nH]5)ccc4n3C3CCCCC3)cc2)c1 [Example 106] | 660 nM |
| O=C(O)c1ccc(-c2cccs2)c(COc2ccc(-c3nc4cc(-c5nnn[nH]5)ccc4n3C3CCCCC3)cc2)c1 [Example 114] | 70 nM |
| O=C(O)c1ccc(-c2ccsc2)c(COc2ccc(-c3nc4cc(-c5nnn[nH]5)ccc4n3C3CCCCC3)cc2)c1 [Example 115] | 40 nM |
| O=C(O)c1ccc(-c2cc3ccccc3o2)c(COc2ccc(-c3nc4cc(-c5nnn[nH]5)ccc4n3C3CCCCC3)cc2)c1 [Example 116] | 170 nM |
| O=C(O)c1ccc(-c2ccco2)c(COc2ccc(-c3nc4cc(-c5nnn[nH]5)ccc4n3C3CCCCC3)cc2)c1 [Example 117] | 290 nM |
| O=C(O)c1ccc(-c2ccc3c(c2)OCO3)c(COc2ccc(-c3nc4cc(-c5nnn[nH]5)ccc4n3C3CCCCC3)cc2)c1 [Example 118] | 70 nM |
| O=C(O)c1ccc(-c2cc3ccccc3s2)c(COc2ccc(-c3nc4cc(-c5nnn[nH]5)ccc4n3C3CCCCC3)cc2)c1 [Example 119] | 30 nM |
| CC(=O)c1ccc(-c2ccc(C(=O)O)cc2COc2ccc(-c3nc4cc(-c5nnn[nH]5)ccc4n3C3CCCCC3)cc2)s1 [Example 120] | 20 nM |
| O=C(O)c1ccc(-c2ccc3[nH]ccc3c2)c(COc2ccc(-c3nc4cc(-c5nnn[nH]5)ccc4n3C3CCCCC3)cc2)c1 [Example 121] | 30 nM |
| O=Cc1ccoc1-c1ccc(C(=O)O)cc1COc1ccc(-c2nc3cc(-c4nnn[nH]4)ccc3n2C2CCCCC2)cc1 [Example 122] | 670 nM |

Source: patent US6803374B2, “Compounds useful for treating hepatitis C virus” (priority 2001, dated 2004)
